Experimental data published in patent US10570099B2, “Salts of an epidermal growth factor receptor kinase inhibitor” (Celgene CAR LLC, priority 2012, dated 2020).

How the values were obtained:
[1] = 1 week stability of primary screen salts at 40° C./75% RH and 80° C. (open vials, XRPD); assay type: physicochemical
Method: (open vials). TGA was carried out after the stability studies for samples containing sufficient material.

[2] = Solvent solubility screen of amorphous hydrobromide salt; assay type: physicochemical
Method: Approximately 10 mg of amorphous hydrobromide salt was placed in each of 24 vials and 5 volume aliquots of the appropriate solvent system was added to the vial. Between each addition, the mixture was checked for dissolution. This procedure was continued until dissolution was observed or until 100 volumes of solvent had been added.

C=CC(=O)Nc1cccc(Nc2nc(Nc3ccc(N4CCN(C(C)=O)CC4)cc3OC)ncc2C(F)(F)F)c1.Cc1ccc(S(=O)(=O)O)cc1.Cc1ccc(S(=O)(=O)O)cc1 [Tosylate (2 equiv.) Form I]
Stability 40° C./75% RH (open conditions) [1]: No form change, | Stability 80° C. (open conditions) [1]: No form change,

C=CC(=O)Nc1cccc(Nc2nc(Nc3ccc(N4CCN(C(C)=O)CC4)cc3OC)ncc2C(F)(F)F)c1.Cl.Cl [Hydrochloride (2 equiv.) Form I]
Stability 40° C./75% RH (open conditions) [1]: No form change, | Stability 80° C. (open conditions) [1]: No form change,

C=CC(=O)Nc1cccc(Nc2nc(Nc3ccc(N4CCN(C(C)=O)CC4)cc3OC)ncc2C(F)(F)F)c1.CC1(C)C2CCC1(CS(=O)(=O)O)C(=O)C2 [Camphor-10-sulfonic acid (1 eq.) Form I]
Stability 40° C./75% RH (open conditions) [1]: No form change, slight | Stability 80° C. (open conditions) [1]: No form change,

C=CC(=O)Nc1cccc(Nc2nc(Nc3ccc(N4CCN(C(C)=O)CC4)cc3OC)ncc2C(F)(F)F)c1.Cc1ccc(S(=O)(=O)O)cc1 [Tosylate (1 equiv.) Form I]
Stability 40° C./75% RH (open conditions) [1]: No form change, | Stability 80° C. (open conditions) [1]: No form change,

C=CC(=O)Nc1cccc(Nc2nc(Nc3ccc(N4CCN(C(C)=O)CC4)cc3OC)ncc2C(F)(F)F)c1.O=S(=O)(O)c1ccccc1 [Besylate (1 equiv.) Form II]
Stability 40° C./75% RH (open conditions) [1]: No form change, some | Stability 80° C. (open conditions) [1]: No form change, some

C=CC(=O)Nc1cccc(Nc2nc(Nc3ccc(N4CCN(C(C)=O)CC4)cc3OC)ncc2C(F)(F)F)c1.Cc1ccc(S(=O)(=O)O)cc1.Cc1ccc(S(=O)(=O)O)cc1 [Tosylate (2 equiv.) Form II]
Stability 40° C./75% RH (open conditions) [1]: Gum formed | Stability 80° C. (open conditions) [1]: Possible form change,

C=CC(=O)Nc1cccc(Nc2nc(Nc3ccc(N4CCN(C(C)=O)CC4)cc3OC)ncc2C(F)(F)F)c1.O=C(O)/C=C\C(=O)O [Maleate Form I]
Stability 40° C./75% RH (open conditions) [1]: No form change, | Stability 80° C. (open conditions) [1]: No form change,

C=CC(=O)Nc1cccc(Nc2nc(Nc3ccc(N4CCN(C(C)=O)CC4)cc3OC)ncc2C(F)(F)F)c1.O=S(=O)(O)c1ccc2ccccc2c1.O=S(=O)(O)c1ccc2ccccc2c1 [Naphthalene-2-sulfonic acid (2 eq.) Form I]
Stability 40° C./75% RH (open conditions) [1]: No form change, poor | Stability 80° C. (open conditions) [1]: No form change, poor

C=CC(=O)Nc1cccc(Nc2nc(Nc3ccc(N4CCN(C(C)=O)CC4)cc3OC)ncc2C(F)(F)F)c1.O=S(=O)(O)c1ccc2ccccc2c1.O=S(=O)(O)c1ccc2ccccc2c1 [Naphthalene-2-sulfonic acid (2 eq.) Form II]
Stability 40° C./75% RH (open conditions) [1]: No form change,

C=CC(=O)Nc1cccc(Nc2nc(Nc3ccc(N4CCN(C(C)=O)CC4)cc3OC)ncc2C(F)(F)F)c1.CC1(C)C2CCC1(CS(=O)(=O)O)C(=O)C2.CC1(C)C2CCC1(CS(=O)(=O)O)C(=O)C2 [Camphor-10-sulfonic acid (2 eq.) Form I]
Stability 40° C./75% RH (open conditions) [1]: Amorphous | Stability 80° C. (open conditions) [1]: Amorphous

C=CC(=O)Nc1cccc(Nc2nc(Nc3ccc(N4CCN(C(C)=O)CC4)cc3OC)ncc2C(F)(F)F)c1.O=C(O)/C=C\C(=O)O [Maleate Form III]
Stability 40° C./75% RH (open conditions) [1]: No clear form change | Stability 80° C. (open conditions) [1]: No clear form change

C=CC(=O)Nc1cccc(Nc2nc(Nc3ccc(N4CCN(C(C)=O)CC4)cc3OC)ncc2C(F)(F)F)c1.O=S(=O)(O)c1ccccc1.O=S(=O)(O)c1ccccc1 [Besylate (2 equiv.) Form II]
Stability 40° C./75% RH (open conditions) [1]: No form change, | Stability 80° C. (open conditions) [1]: No form change,

C=CC(=O)Nc1cccc(Nc2nc(Nc3ccc(N4CCN(C(C)=O)CC4)cc3OC)ncc2C(F)(F)F)c1.CC1(C)C2CCC1(CS(=O)(=O)O)C(=O)C2 [Camphor-10-sulfonic acid (1 eq.) Form II]
Stability 80° C. (open conditions) [1]: Converted to Form I,

C=CC(=O)Nc1cccc(Nc2nc(Nc3ccc(N4CCN(C(C)=O)CC4)cc3OC)ncc2C(F)(F)F)c1.CS(=O)(=O)O.CS(=O)(=O)O [Mesylate Form I]
Stability 40° C./75% RH (open conditions) [1]: Gum formed | Stability 80° C. (open conditions) [1]: Amorphous solid

C=CC(=O)Nc1cccc(Nc2nc(Nc3ccc(N4CCN(C(C)=O)CC4)cc3OC)ncc2C(F)(F)F)c1.O=S(=O)(O)c1cccc2c(S(=O)(=O)O)cccc12
Stability 40° C./75% RH (open conditions) [1]: No form change, | Stability 80° C. (open conditions) [1]: Possible form change,

C=CC(=O)Nc1cccc(Nc2nc(Nc3ccc(N4CCN(C(C)=O)CC4)cc3OC)ncc2C(F)(F)F)c1.O=S(=O)(O)c1ccccc1 [Besylate (1 equiv.) Form I]
Stability 40° C./75% RH (open conditions) [1]: No form change, | Stability 80° C. (open conditions) [1]: No form change,

C=CC(=O)Nc1cccc(Nc2nc(Nc3ccc(N4CCN(C(C)=O)CC4)cc3OC)ncc2C(F)(F)F)c1.Cc1ccc(S(=O)(=O)O)cc1 [Tosylate (1 equiv.) Form II]
Stability 40° C./75% RH (open conditions) [1]: Gum formed | Stability 80° C. (open conditions) [1]: Possible form change,

C=CC(=O)Nc1cccc(Nc2nc(Nc3ccc(N4CCN(C(C)=O)CC4)cc3OC)ncc2C(F)(F)F)c1.O=S(=O)(O)c1ccc2ccccc2c1.O=S(=O)(O)c1ccc2ccccc2c1 [Naphthalene-2-sulfonic acid (2 eq.) Form IV]
Stability 40° C./75% RH (open conditions) [1]: Converted to Form II, | Stability 80° C. (open conditions) [1]: Converted to Form II,

C=CC(=O)Nc1cccc(Nc2nc(Nc3ccc(N4CCN(C(C)=O)CC4)cc3OC)ncc2C(F)(F)F)c1.O=S(=O)(O)c1ccc2ccccc2c1
Stability 40° C./75% RH (open conditions) [1]: No form change, small | Stability 80° C. (open conditions) [1]: No form change,

Br.Br.C=CC(=O)Nc1cccc(Nc2nc(Nc3ccc(N4CCN(C(C)=O)CC4)cc3OC)ncc2C(F)(F)F)c1 [HBr (2 eq.) Form II]
Stability 40° C./75% RH (open conditions) [1]: Changed to Form I, | Stability 80° C. (open conditions) [1]: Potential new form,

Br.C=CC(=O)Nc1cccc(Nc2nc(Nc3ccc(N4CCN(C(C)=O)CC4)cc3OC)ncc2C(F)(F)F)c1 [amorphous hydrobromide salt]
Approximate Solubility ([2]; 1,4-Dioxane): <10 mg/mL | Approximate Solubility ([2]; 1-Butanol): <10 mg/mL | Approximate Solubility ([2]; 2-Propanol): <10 mg/mL | Approximate Solubility ([2]; 3-Methyl-1-butanol): <10 mg/mL | Approximate Solubility ([2]; Acetone): <10 mg/mL | Approximate Solubility ([2]; Acetone:Water (10%)): <10 mg/mL | Approximate Solubility ([2]; Acetonitrile): <10 mg/mL | Approximate Solubility ([2]; Cyclohexane): <10 mg/mL | Approximate Solubility ([2]; Dichloromethane): <10 mg/mL | Approximate Solubility ([2]; Diisopropyl ether): <10 mg/mL | Approximate Solubility ([2]; Dimethylformamide): ca. 67 mg/mL | Approximate Solubility ([2]; Dimethylsulfoxide): ca. 50 mg/mL | Approximate Solubility ([2]; Ethanol): <10 mg/mL | Approximate Solubility ([2]; Ethyl acetate): <10 mg/mL | Approximate Solubility ([2]; Heptane): <10 mg/mL | Approximate Solubility ([2]; Isopropyl acetate): <10 mg/mL | Approximate Solubility ([2]; Methyl isobutyl ketone): <10 mg/mL | Approximate Solubility ([2]; Methylethyl ketone): <10 mg/mL | Approximate Solubility ([2]; N-Methyl-2-pyrrolidone): ca. 20 mg/mL | Approximate Solubility ([2]; Nitromethane): <10 mg/mL | Approximate Solubility ([2]; Tetrahydrofuran): <10 mg/mL | Approximate Solubility ([2]; Toluene): <10 mg/mL | Approximate Solubility ([2]; Water): <10 mg/mL | Approximate Solubility ([2]; tert-Butylmethyl ether): <10 mg/mL

C=CC(=O)Nc1cccc(Nc2nc(Nc3ccc(N4CCN(C(C)=O)CC4)cc3OC)ncc2C(F)(F)F)c1.O=C(O)/C=C\C(=O)O [Maleate Form II]
Stability 40° C./75% RH (open conditions) [1]: No form change, | Stability 80° C. (open conditions) [1]: No form change,

C=CC(=O)Nc1cccc(Nc2nc(Nc3ccc(N4CCN(C(C)=O)CC4)cc3OC)ncc2C(F)(F)F)c1.O=C(O)C(=O)O [Oxalate Form II]
Stability 40° C./75% RH (open conditions) [1]: No form change, | Stability 80° C. (open conditions) [1]: Amorphous brown

C=CC(=O)Nc1cccc(Nc2nc(Nc3ccc(N4CCN(C(C)=O)CC4)cc3OC)ncc2C(F)(F)F)c1.O=C(O)C(=O)O [Oxalate Form I]
Stability 40° C./75% RH (open conditions) [1]: No form change, | Stability 80° C. (open conditions) [1]: No form change,

C=CC(=O)Nc1cccc(Nc2nc(Nc3ccc(N4CCN(C(C)=O)CC4)cc3OC)ncc2C(F)(F)F)c1.Cl [Hydrochloride (1 equiv.) Form I]
Stability 40° C./75% RH (open conditions) [1]: No form change, | Stability 80° C. (open conditions) [1]: No form change,

C=CC(=O)Nc1cccc(Nc2nc(Nc3ccc(N4CCN(C(C)=O)CC4)cc3OC)ncc2C(F)(F)F)c1.O=S(=O)(O)c1ccc2ccccc2c1.O=S(=O)(O)c1ccc2ccccc2c1 [Naphthalene-2-sulfonic acid (2 eq.) Form III]
Stability 40° C./75% RH (open conditions) [1]: Converted to Form II, | Stability 80° C. (open conditions) [1]: Converted to Form II,
